Reference: PMC3135787 (Antiviral research, 2011)
Where “and” joins values, the source holds several entries; their conditions need not be identical. Equal entries are not always repeated. Where two headings read alike, the source gives them in different places.

Legend:
[1] = system: Huh7 cells; test: 8-day MTS cytotoxicity assay, Huh7; assay type: cell-based, human; conditions: Huh7, eight days, MTS
[2] = system: ET replicon with NS5B M423T; assay type: cell-based, HCV
[3] = system: genotype 1b ET replicon, wild type; assay type: cell-based, HCV; conditions: read-out: EC90 WT replicon
[4] = system: Clone A replicon with NS5B S282T; test: microbe, parasite or virus in culture; assay type: cell-based, HCV
[5] = system: HepG2 cells; test: Mitochondrial COXII DNA and ribosomal DNA by real time PCR, HepG2; assay type: cell-based, human; conditions: HepG2 cells; for CC90: fourteen days
[6] = system: CEM cells; test: Mitochondrial COXII DNA and ribosomal DNA by real time PCR, CEM; assay type: cell-based, human; conditions: CEM cells; for CC90: fourteen days
[7] = system: ET replicon with NS5B P495L; test: microbe, parasite or virus in culture; assay type: cell-based, HCV
[8] = system: ET-Lunet replicon cells; test: HCV replicon clearance and rebound study; assay type: cell-based; conditions: for clearance of replicon RNA (colony formation after 14 days G418 without compound): 14 days treatment
[9] = system: genotype 1a H77 subgenomic replicon; test: HCV replicon assay, genotype 1a H77; assay type: cell-based; conditions: GT1a_H77 replicon, four days
[10] = system: erythroid progenitor cells (CFU-E and BFU-E); test: Human bone marrow stem cell toxicity, 14-day colony formation, erythroid; assay type: cell-based; conditions: read-out: IC50, erythroid progenitor cells (CFU-E and BFU-E); 14-day colony formation assay
[11] = system: CEM cells; test: Lactic acid production, CEM; conditions: 7 days, normalised to rDNA
[12] = system: HepG2 cells; test: 8-day MTS cytotoxicity assay, HepG2; assay type: cell-based, human; conditions: HepG2, eight days, MTS
[13] = system: HepG2 cells; test: Lactic acid production, HepG2; conditions: 7 days, normalised to rDNA
[14] = system: Clone A wild type replicon; test: Cross resistance: Clone A wild type replicon, RT-PCR; assay type: cell-based, HCV; conditions: read-out: EC90 WT replicon; Clone A wild type replicon, RT-PCR assay
[15] = system: HCV 1a H77Sv2 infectious virus; test: Infectious virus assay, genotype 1a; assay type: cell-based; conditions: GT1a_H77 infectious virus, En5-3 cells, three days
[16] = target: T1, recombinant human ADAL1 (Homo sapiens, UniProt Q6DHV7); test: ADAL1-mediated demethylation assay; assay type: biochemical; conditions: ADAL1, pH 6.7, 37°C
T1 sequence (Q6DHV7 1-355): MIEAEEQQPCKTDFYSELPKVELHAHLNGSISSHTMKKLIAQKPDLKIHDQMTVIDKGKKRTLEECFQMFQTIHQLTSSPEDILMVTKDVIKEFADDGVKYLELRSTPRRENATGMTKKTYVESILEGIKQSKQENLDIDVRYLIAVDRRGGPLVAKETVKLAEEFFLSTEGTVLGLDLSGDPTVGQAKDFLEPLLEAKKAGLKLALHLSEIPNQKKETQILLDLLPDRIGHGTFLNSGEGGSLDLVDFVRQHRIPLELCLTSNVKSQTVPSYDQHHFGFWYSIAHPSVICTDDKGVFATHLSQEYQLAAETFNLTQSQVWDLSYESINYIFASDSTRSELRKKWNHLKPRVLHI

[17] = system: primary human hepatocytes; test: Metabolism of [3H]-PSI-353661 in primary human hepatocytes; assay type: in vitro ADME; conditions: 5 μM [3H]-PSI-353661, up to 24 hours
[18] = target: human cathepsin A (Cat A) (Homo sapiens, UniProt P10619); test: Hydrolysis of the carboxyl ester by cathepsin A; assay type: biochemical; conditions: CatA, 100 μM substrate, 37 °C
[19] = system: CEM cells; test: 8-day MTS cytotoxicity assay, CEM; assay type: cell-based, human; conditions: CEM, eight days, MTS
[20] = system: myeloid progenitor cells (CFU-GM); test: Human bone marrow stem cell toxicity, 14-day colony formation, myeloid; assay type: cell-based; conditions: read-out: IC50, myeloid progenitor cells (CFU-GM); 14-day colony formation assay
[21] = system: genotype 2a J6/JFH-1 subgenomic replicon; test: HCV replicon assay, genotype 2a J6/JFH-1; assay type: cell-based; conditions: GT2a_JFH-1 replicon, four days
[22] = system: BxPC3 cells; test: 8-day MTS cytotoxicity assay, BxPC3; assay type: cell-based, human; conditions: BxPC3, eight days, MTS
[23] = system: ET replicon with NS5B S96T/N142T; test: microbe, parasite or virus in culture; assay type: cell-based, HCV
[24] = system: genotype 1b replicon (Con1 strain); test: HCV replicon assay, genotype 1b Con1; assay type: cell-based; conditions: GT1b_Con1 replicon, four days
[25] = system: ET replicon with NS5B C316Y; test: microbe, parasite or virus in culture; assay type: cell-based, HCV
[26] = target: human carboxylesterase 1 (CES-1) (Homo sapiens, UniProt P23141); test: Hydrolysis of the carboxyl ester by carboxylesterase 1; assay type: biochemical
[27] = system: ET replicon with NS5B M414T; test: microbe, parasite or virus in culture; assay type: cell-based, HCV
[28] = system: HCV 2a JFH-1 infectious virus; test: Infectious virus assay, genotype 2a; assay type: cell-based; conditions: GT2a_JFH-1 infectious virus, En5-3 cells, three days

human carboxylesterase 1 (CES-1), sequence (P23141 18-567): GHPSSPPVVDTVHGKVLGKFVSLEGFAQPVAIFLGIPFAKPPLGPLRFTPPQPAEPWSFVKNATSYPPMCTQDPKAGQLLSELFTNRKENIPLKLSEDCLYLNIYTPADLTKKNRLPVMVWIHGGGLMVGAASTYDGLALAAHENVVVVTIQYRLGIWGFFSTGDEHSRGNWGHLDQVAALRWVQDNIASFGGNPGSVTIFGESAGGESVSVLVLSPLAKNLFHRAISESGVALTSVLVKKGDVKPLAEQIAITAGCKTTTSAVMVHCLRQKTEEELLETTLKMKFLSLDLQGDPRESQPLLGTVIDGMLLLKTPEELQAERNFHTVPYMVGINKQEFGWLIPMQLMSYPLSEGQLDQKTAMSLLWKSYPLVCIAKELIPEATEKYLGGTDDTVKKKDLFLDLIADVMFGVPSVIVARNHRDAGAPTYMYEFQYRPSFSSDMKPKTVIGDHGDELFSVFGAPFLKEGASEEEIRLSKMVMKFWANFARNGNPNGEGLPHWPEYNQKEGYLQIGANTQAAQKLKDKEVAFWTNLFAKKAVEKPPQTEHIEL
human cathepsin A (Cat A), sequence (P10619 29-326 limits assumed): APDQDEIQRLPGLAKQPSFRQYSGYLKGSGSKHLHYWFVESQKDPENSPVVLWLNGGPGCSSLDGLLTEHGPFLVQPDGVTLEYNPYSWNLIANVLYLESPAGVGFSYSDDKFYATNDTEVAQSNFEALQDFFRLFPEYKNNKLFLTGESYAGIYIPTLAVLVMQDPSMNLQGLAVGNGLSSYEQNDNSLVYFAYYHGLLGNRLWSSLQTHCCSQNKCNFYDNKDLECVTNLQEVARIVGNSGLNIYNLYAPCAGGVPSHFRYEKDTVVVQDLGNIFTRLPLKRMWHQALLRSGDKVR
human cathepsin A (Cat A), sequence (P10619 327-480 limits assumed): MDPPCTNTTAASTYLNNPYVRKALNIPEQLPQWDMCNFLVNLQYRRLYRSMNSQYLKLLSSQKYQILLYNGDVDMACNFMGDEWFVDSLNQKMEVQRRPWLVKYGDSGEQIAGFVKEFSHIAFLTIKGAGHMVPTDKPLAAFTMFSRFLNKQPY

Compound: COc1nc(N)nc2c1ncn2[C@@H]1O[C@H](COP(=O)(N[C@@H](C)C(=O)OC(C)C)Oc2ccccc2)[C@@H](O)[C@@]1(C)F (stereo partly drawn) [PSI-353661, (S)-2-{(S)-[(1R,4R,5R)-5-(2-amino-6-methoxy-purin-9-yl)-4-(R)-fluoro-3-hydroxy-4-methyl-tetrahydro-furan-2-ylmethoxy]-phenoxy-phosphorylamino}-propionic acid isopropyl ester]
- CC50 [1]: 80000 ± 6000 nM
- EC90 fold change [2]: 0.8
- EC90 ([2]; read-out: EC90 Mutant replicon, M423T, luciferase-based assay): 9.7 ± 1.9 nM
- EC90 [3]: 12 ± 4 nM
- EC90 fold change [4]: 1.5
- EC90 ([4]; read-out: EC90 Mutant replicon, S282T, RT-PCR assay): 14 ± 2.6 nM
- effect on mitochondrial DNA content ([5]; up to 100 μM, 14 days): did not affect mitochondrial DNA content
- CC90 ([5]; read-out: CC90 mtDNA): > 100000 nM
- CC90 ([5]; read-out: CC90 rDNA): > 100000 nM
- effect on mitochondrial DNA content ([6]; up to 100 μM, 14 days): did not affect mitochondrial DNA content
- CC90 ([6]; read-out: CC90 mtDNA): > 100000 nM
- CC90 ([6]; read-out: CC90 rDNA): > 100000 nM
- EC90 fold change [7]: 1.0
- EC90 ([7]; read-out: EC90 Mutant replicon, P495L, luciferase-based assay): 12 ± 0.34 nM
- reduction of HCV replicon RNA ([8]; 8 nM (2× EC50), end of first 14-days, no G418): 1 log
- decrease in HCV replicon RNA ([8]; 20 nM dose, end of first 14-days, no G418): > 4 log
- clearance of replicon RNA (colony formation after 14 days G418 without compound) ([8]; 20 nM): partial clearance
- HCV RNA level ([8]; 40 and 80 nM doses, by day 10): undetectable
- clearance of replicon RNA (colony formation after 14 days G418 without compound) ([8]; 40 and 80 nM): completely eliminated the replicon
- EC50 ([8]; read-out: EC50 value, ET-Lunet replicon cells, value used to set clearance doses): 4 nM
- EC50 [9]: 4.5 ± 0.7 nM
- EC90 [9]: 10.5 ± 0.7 nM
- IC50 [10]: > 50000 nM
- Lactic acid (Fold change from untreated cells) ([11]; 0.1 μM): 1.4 ± 0.36
- Lactic acid (Fold change from untreated cells) ([11]; 1.0 μM): 1.4 ± 0.10
- Lactic acid (Fold change from untreated cells) ([11]; 10 μM): 1.4 ± 0.31
- Lactic acid (Fold change from untreated cells) ([11]; 50 μM): 1.3 ± 0.40
- CC50 [12]: > 100000 nM
- Lactic acid (Fold change from untreated cells) ([13]; 0.1 μM): 1.2 ± 0.35
- Lactic acid (Fold change from untreated cells) ([13]; 1.0 μM): 1.2 ± 0.29
- Lactic acid (Fold change from untreated cells) ([13]; 10 μM): 1.1 ± 0.06
- Lactic acid (Fold change from untreated cells) ([13]; 50 μM): 1.3 ± 0.31
- EC90 [14]: 9 nM and 9.3 nM
- EC50 [15]: 3.5 nM
- EC90 [15]: 8.6 nM
- Km [16]: No activity
- kcat [16]: No activity
- kcat / Km [16]: No activity
- intracellular level of parent compound [17]: undetectable
- specific activity of hydrolysis to PSI-353131 [18]: 0.80 µmol/min/mg
- CC50 [19]: > 100000 nM
- IC50 [20]: 45000 ± 2000 nM
- EC50 [21]: 6.5 ± 2.1 nM
- EC90 [21]: 14 ± 1.4 nM
- CC50 [22]: > 100000 nM
- EC90 fold change [23]: 0.7
- EC90 ([23]; read-out: EC90 Mutant replicon, S96T/N142T, luciferase-based assay): 8.7 ± 3.7 nM
- EC50 [24]: 3 ± 1.4 nM
- EC90 [24]: 8.5 ± 0.7 nM
- EC90 fold change [25]: 0.8
- EC90 ([25]; read-out: EC90 Mutant replicon, C316Y, luciferase-based assay): 9.8 ± 3.5 nM
- rate of hydrolysis (specific activity) ([26]; CES1, 100 μM substrate, 37 °C, not time-dependent): ~0.034 µmol/min/mg
- fraction converted to product PSI-353131 ([26]; incubation with CES1): ~10%
- EC90 fold change [27]: 1.0
- EC90 ([27]; read-out: EC90 Mutant replicon, M414T, luciferase-based assay): 12 ± 2.2 nM
- EC50 [28]: 1.6 nM
- EC90 [28]: 11.2 nM
